In EP2540163A1, “Nematocide N-cyclopropyl-sulfonylamide derivatives” (Bayer CropScience AG, priority 2011, dated 2013):

Assay: logP by HPLC on reversed-phase column (C 18), EEC Directive 79/831 Annex V.A8, Method B (0.1% aqueous formic acid / acetonitrile, 40°C)
Type: physicochemical
Settings: c18 reversed-phase hplc; LogP method B: HPLC reversed-phase C 18, 40°C, 0.1% aqueous formic acid / acetonitrile
Protocol: Calibration was carried out using unbranched alkan-2-ones (having 3 to 16 carbon atoms) with known logP values (determination of the logP values by the retention times using linear interpolation between two successive alkanones).

Molecule Cc1cc(C(=O)N(C2CC2)S(=O)(=O)c2cccc(Cl)c2Cl)c(C)o1 [compound 5] has a chromatographic logP of 3.8.

For Cc1cc(C(=O)N(C2CC2)S(=O)(=O)c2ccc(Cl)c(Cl)c2Cl)c(C)o1 [compound 6], the chromatographic logP was 4.4.

For O=C(c1ccsc1I)N(C1CC1)S(=O)(=O)c1cccc(Cl)c1Cl [compound 19], the chromatographic logP was 3.8.

Work on COc1cscc1C(=O)N(C1CC1)S(=O)(=O)c1cccc(Cl)c1Cl [compound 25] yielded a chromatographic logP of 3.3.

For COc1cscc1C(=O)N(C1CC1)S(=O)(=O)c1ccc(Cl)c(Cl)c1Cl [compound 27], the chromatographic logP was 3.9.

Work on Cn1cc(C(=O)N(C2CC2)S(=O)(=O)c2cccc(Cl)c2Cl)c(C(F)(F)F)c1 [compound 36] yielded a chromatographic logP of 3.3.

For Cn1cc(C(=O)N(C2CC2)S(=O)(=O)c2ccc(Cl)c(Cl)c2Cl)c(C(F)(F)F)c1 [compound 37], the chromatographic logP was 3.9.

With Cc1cc(C(=O)N(C2CC2)S(=O)(=O)c2cccc(Cl)c2Cl)nn1C [compound 74] the chromatographic logP was 2.7.

With Cc1cc(C(=O)N(C2CC2)S(=O)(=O)c2ccc(Cl)c(Cl)c2Cl)nn1C [compound 75] the chromatographic logP was 3.3.

In the case of CC(C)c1nn(C)c(F)c1C(=O)N(C1CC1)S(=O)(=O)c1cccc(Cl)c1Cl [compound 93], the chromatographic logP is reported as 3.6.

CC(C)c1nn(C)c(F)c1C(=O)N(C1CC1)S(=O)(=O)c1ccc(Cl)cc1Cl [compound 96] gave a chromatographic logP of 3.8.

CC(C)c1nn(C)c(F)c1C(=O)N(C1CC1)S(=O)(=O)c1ccc(C(F)(F)F)cc1Cl [compound 97] showed a chromatographic logP of 4.

For Cn1nc(-c2ccccc2)c(C(=O)N(C2CC2)S(=O)(=O)c2ccc(Cl)c(Cl)c2Cl)c1F [compound 100], the chromatographic logP was 4.3.

Molecule Cn1nc(-c2ccccc2)c(C(=O)N(C2CC2)S(=O)(=O)c2cccc(Cl)c2Cl)c1F [compound 101] has a chromatographic logP of 3.7.

Work on Cn1nc(C(F)F)c(C(=O)N(C2CC2)S(=O)(=O)c2ccccc2Cl)c1F [compound 103] yielded a chromatographic logP of 2.8.

In the case of Cn1nc(C(F)F)c(C(=O)N(C2CC2)S(=O)(=O)c2cccc(Cl)c2Cl)c1F [compound 104], the chromatographic logP is reported as 3.2.

With Cn1nc(C(F)F)c(C(=O)N(C2CC2)S(=O)(=O)c2ccc(Cl)cc2Cl)c1F [compound 105] the chromatographic logP was 3.4.

In the case of Cn1nc(C(F)(F)F)c(C(=O)N(C2CC2)S(=O)(=O)c2ccc(Cl)c(Cl)c2Cl)c1F [compound 108], the chromatographic logP is reported as 4.1.

CC(F)c1nn(C)cc1C(=O)N(C1CC1)S(=O)(=O)c1cccc(Cl)c1Cl (stereo not shown) [compound 119] showed a chromatographic logP of 2.8.

Cn1cc(C(=O)N(C2CC2)S(=O)(=O)c2cccc(Cl)c2Cl)c(C(F)F)n1 [compound 221] showed a chromatographic logP of 2.9.

With Cn1nc(C2CC2)c(C(=O)N(C2CC2)S(=O)(=O)c2ccc(Cl)c(Cl)c2Cl)c1Cl [compound 223] the chromatographic logP was 4.2.

With Cn1nc(C2CC2)c(C(=O)N(C2CC2)S(=O)(=O)c2ccc(Cl)c(Cl)c2Cl)c1F [compound 224] the chromatographic logP was 3.9.

For Cn1nc(C2CC2)c(C(=O)N(C2CC2)S(=O)(=O)c2cccc(Cl)c2Cl)c1Cl [compound 225], the chromatographic logP was 4.7.

With Cc1nn(C)c(C#N)c1C(=O)N(C1CC1)S(=O)(=O)c1ccc(Cl)c(Cl)c1Cl [compound 228] the chromatographic logP was 3.9.

Molecule Cc1nn(C)c(N(C)C)c1C(=O)N(C1CC1)S(=O)(=O)c1ccc(Cl)c(Cl)c1Cl [compound 229] has a chromatographic logP of 3.6.

With COc1c(C(=O)N(C2CC2)S(=O)(=O)c2ccc(Cl)c(Cl)c2Cl)c(C)nn1C [compound 230] the chromatographic logP was 3.2.

Cc1nn(C)c(Oc2ccc(Cl)cc2)c1C(=O)N(C1CC1)S(=O)(=O)c1ccccc1Cl [compound 261] gave a chromatographic logP of 3.6.

COc1nn(C)c(Cl)c1C(=O)N(C1CC1)S(=O)(=O)c1cccc(Cl)c1Cl [compound 278] gave a chromatographic logP of 3.2.

COc1nn(C)c(Cl)c1C(=O)N(C1CC1)S(=O)(=O)c1ccc(Oc2ccccc2)cc1 [compound 280] showed a chromatographic logP of 3.8.

With COc1nn(C)c(Cl)c1C(=O)N(C1CC1)S(=O)(=O)c1ccc(Cl)c(Cl)c1Cl [compound 282] the chromatographic logP was 3.8.

COc1nn(C)c(Cl)c1C(=O)N(C1CC1)S(=O)(=O)c1ccc(Oc2ccc(Br)cc2)cc1 [compound 284] showed a chromatographic logP of 4.3.

In the case of CCCOc1nn(C)cc1C(=O)N(C1CC1)S(=O)(=O)c1ccc(Oc2ccc(Cl)c(C(F)(F)F)c2)cc1Br [compound 302], the chromatographic logP is reported as 4.9.

CCCOc1nn(C)cc1C(=O)N(C1CC1)S(=O)(=O)c1ccc(Oc2ccc(Br)c(Cl)c2)cc1Br [compound 304] showed a chromatographic logP of 5.

For CCCOc1nn(C)cc1C(=O)N(C1CC1)S(=O)(=O)c1ccc(Oc2cc(Cl)cc(Cl)c2)cc1Br [compound 305], the chromatographic logP was 5.1.

With Cn1nc(C(F)(F)F)c(C(=O)N(C2CC2)S(=O)(=O)c2cccc(Cl)c2Cl)c1F [compound 357] the chromatographic logP was 3.3.

Cn1nc(C(F)(F)F)c(C(=O)N(C2CC2)S(=O)(=O)c2c(Cl)cccc2Cl)c1F [compound 360] showed a chromatographic logP of 3.1.

Cn1nc(C(F)(F)F)c(C(=O)N(C2CC2)S(=O)(=O)c2cc(Cl)c(Cl)cc2Cl)c1F [compound 361] showed a chromatographic logP of 4.

Cn1nc(C(F)(F)F)c(C(=O)N(C2CC2)S(=O)(=O)c2ccc(F)cc2Cl)c1F [compound 362] gave a chromatographic logP of 3.1.

Molecule Cn1nc(C(F)(F)F)c(C(=O)N(C2CC2)S(=O)(=O)c2c(Cl)cc(Cl)cc2Cl)c1F [compound 363] has a chromatographic logP of 3.7.

Molecule Cc1cc(Cl)cc(Cl)c1S(=O)(=O)N(C(=O)c1c(C(F)(F)F)nn(C)c1F)C1CC1 [compound 367] has a chromatographic logP of 2.6.

Cn1nc(C(F)(F)F)c(C(=O)N(C2CC2)S(=O)(=O)c2ccc(Oc3ncc(C(F)(F)F)cc3Cl)cc2)c1F [compound 372] gave a chromatographic logP of 4.2.

Work on CCc1nn(C)c(F)c1C(=O)N(C1CC1)S(=O)(=O)c1cc(Cl)cc(Cl)c1 [compound 376] yielded a chromatographic logP of 3.9.

In the case of CCc1nn(C)c(F)c1C(=O)N(C1CC1)S(=O)(=O)c1ccc(Cl)c(Cl)c1 [compound 378], the chromatographic logP is reported as 3.8.

Molecule CCc1nn(C)c(F)c1C(=O)N(C1CC1)S(=O)(=O)c1c(Cl)cc(Cl)cc1Cl [compound 379] has a chromatographic logP of 3.6.

Work on CCc1nn(C)c(F)c1C(=O)N(C1CC1)S(=O)(=O)c1c(C)nn(C)c1Cl [compound 382] yielded a chromatographic logP of 2.3.

CCc1nn(C)c(F)c1C(=O)N(C1CC1)S(=O)(=O)c1cc(C(F)(F)F)ccc1Cl [compound 384] showed a chromatographic logP of 3.5.

Work on CCc1nn(C)c(F)c1C(=O)N(C1CC1)S(=O)(=O)c1ccc(Br)cc1Cl [compound 385] yielded a chromatographic logP of 3.4.

With CCc1nn(C)c(F)c1C(=O)N(C1CC1)S(=O)(=O)c1c(Cl)cc(C(F)(F)F)cc1Cl [compound 387] the chromatographic logP was 3.8.

Work on CCc1nn(C)c(F)c1C(=O)N(C1CC1)S(=O)(=O)c1ccc(Oc2ccc(Cl)cc2)cc1 [compound 391] yielded a chromatographic logP of 4.2.

Molecule COc1nn(C)cc1C(=O)N(C1CC1)S(=O)(=O)c1c(Cl)cc(C(F)(F)F)cc1Cl [compound 396] has a chromatographic logP of 3.

In the case of Cn1nc(C(F)(F)F)c(C(=O)N(C2CC2)S(=O)(=O)c2c(Cl)sc(Cl)c2Br)c1F [compound 436], the chromatographic logP is reported as 3.9.

With CCc1nn(C)c(F)c1C(=O)N(C1CC1)S(=O)(=O)c1c(Cl)sc(Cl)c1Br [compound 437] the chromatographic logP was 3.8.

In the case of CCc1nn(C)c(F)c1C(=O)N(C1CC1)S(=O)(=O)c1csc(Cl)c1Cl [compound 438], the chromatographic logP is reported as 4.

With COc1nn(C)cc1C(=O)N(C1CC1)S(=O)(=O)c1csc(Cl)c1Cl [compound 440] the chromatographic logP was 3.1.

Molecule Cc1nn(C)c(Cl)c1S(=O)(=O)N(C(=O)c1c(C(F)(F)F)nn(C)c1F)C1CC1 [compound 443] has a chromatographic logP of 2.6.

For COc1nn(C)cc1C(=O)N(C1CC1)S(=O)(=O)c1c(C)nn(C)c1Cl [compound 444], the chromatographic logP was 1.7.

CCc1nn(C)c(F)c1C(=O)N(C1CC1)S(=O)(=O)c1cnc(Cl)c(Br)c1 [compound 448] showed a chromatographic logP of 3.5.

Molecule COc1nn(C)cc1C(=O)N(C1CC1)S(=O)(=O)c1cnc(Cl)c(Br)c1 [compound 449] has a chromatographic logP of 2.

With COc1nn(C)cc1C(=O)N(C1CC1)S(=O)(=O)c1c(Cl)cc(Cl)cc1Cl [compound 461] the chromatographic logP was 2.7.

Work on COc1nn(C)cc1C(=O)N(C1CC1)S(=O)(=O)c1ccc(Oc2cccc(Cl)c2)cc1Br [compound 468] yielded a chromatographic logP of 3.7.

For COc1nn(C)cc1C(=O)N(C1CC1)S(=O)(=O)c1ccc(Oc2ccc(Cl)cc2Cl)cc1Br [compound 477], the chromatographic logP was 4.1.

With COc1nn(C)cc1C(=O)N(C1CC1)S(=O)(=O)c1ccc(Oc2ccc(Cl)c(Cl)c2)cc1Br [compound 478] the chromatographic logP was 4.2.

Work on COc1nn(C)cc1C(=O)N(C1CC1)S(=O)(=O)c1ccc(Oc2ccc(Br)c(Cl)c2)cc1Br [compound 480] yielded a chromatographic logP of 4.2.

COc1nn(C)cc1C(=O)N(C1CC1)S(=O)(=O)c1ccc(Oc2cc(Cl)cc(Cl)c2)cc1Br [compound 481] gave a chromatographic logP of 4.3.

For CCOc1nn(C)cc1C(=O)N(C1CC1)S(=O)(=O)c1ccc(Oc2ccc(C)nc2)cc1Cl [compound 525], the chromatographic logP was 2.2.

CCOc1nn(C)cc1C(=O)N(C1CC1)S(=O)(=O)c1ccc(Oc2ccc(OC)c(OC)c2)cc1Cl [compound 527] showed a chromatographic logP of 3.2.

For CCOc1nn(C)cc1C(=O)N(C1CC1)S(=O)(=O)c1ccc(Oc2ccc(OC)c(OC)c2)c(Cl)c1 [compound 528], the chromatographic logP was 3.5.

CCOc1nn(C)cc1C(=O)N(C1CC1)S(=O)(=O)c1ccc(Oc2ccc(OC)cc2)cc1Cl [compound 529] gave a chromatographic logP of 3.5.

For CCOc1nn(C)cc1C(=O)N(C1CC1)S(=O)(=O)c1ccc(Oc2ccccc2)cc1Cl [compound 530], the chromatographic logP was 3.6.

Molecule CCOc1nn(C)cc1C(=O)N(C1CC1)S(=O)(=O)c1ccc(Oc2ccc(OC)cc2)c(Cl)c1 [compound 531] has a chromatographic logP of 3.8.

CCOc1nn(C)cc1C(=O)N(C1CC1)S(=O)(=O)c1ccc(Oc2cccc(N(C)C)c2)cc1Cl [compound 532] showed a chromatographic logP of 3.8.

Work on CCOc1nn(C)cc1C(=O)N(C1CC1)S(=O)(=O)c1ccc(Oc2ccccc2)c(Cl)c1 [compound 533] yielded a chromatographic logP of 3.9.

CCOc1nn(C)cc1C(=O)N(C1CC1)S(=O)(=O)c1ccc(Oc2cccc(Br)c2)cc1Cl [compound 534] gave a chromatographic logP of 3.9.
